Results on two molecules are retold here after patent US10561704B2, “Compositions and methods for treating neuropsychiatric disorders using an endothelin-B receptor agonist” (MIDWESTERN UNIVERSITY, priority 2013, dated 2020).

*1 amine or outer side, *2 acyl side, *3 side chain or, on linkers, in order; H or OH if unused. Where no end group is shown, it is not given here. Suc = O=C(CCC(=O)[*:2])[*:1]

In this test the test system is Aβ treated non-diabetic and diabetic rats. The test is described as follows: Morris water maze test for cognitive impairment in Aβ treated rats. The test is classed as in vivo, Sprague-Dawley rats. Here is the method: Amyloid-β (1-40) (Tocris Bioscience, Ellisville, Mo., USA), IRL-1620 [N-Succinyl-[Glu9, Ala11,15] endothelin 1] (American Peptide Co, Inc., Sunnyvale, Calif., USA) and BQ788 (American Peptide Co, Inc., Sunnyvale, Calif., USA) were dissolved in sterile saline and all the solutions were freshly prepared before injections. Ketamine (Butler Animal Health Supply, Dublin, Ohio, USA) was administered at a dose of 100 mg/kg, intraperitoneally (i.p.), and xylazine (Lloyd Laboratories, Shenandoah, Iowa, USA) was administered at a dose of 10 mg/kg, i.p. Rats were anesthetized with ketamine (100 mg/kg) and xylazine (10 mg/kg) and a lateral cerebral ventricle was cannulated by placing the rat in a stereotaxic (David Kopf Instruments, Tujunga, Calif., USA) instrument and fixing the cannula (coordinates: 1.0 mm lateral, 1.5 mm caudal to bregma and 4.0 mm deep from the bone). Cannula (Plastics One, Roanoke, Va., USA) was anchored with dental acrylic to three screws placed in the skull. The animals were allowed to recover from surgery for at least seven days. After 7 days, rats were treated with vehicle, Aβ (1-40), ETB receptor agonist and/or antagonist in the lateral cerebral ventricles using the implanted cannula. Vehicle, Aβ or ETB receptor agonist and antagonist were injected in a volume of 5 μl over a period of 5 minutes. Aβ (1-40) was used because it is highly soluble compared to Aβ (1-42) and induces endothelial dysfunction of both cerebral and systemic blood vessels in addition to memory deficit (Nitta et al., 1994; Niwa et al., 2000; Smith et al., 2004; Weller et al., 1998). Agents were delivered using 10 μl Hamilton syringe and agent treatments were carried out individually using separate 10 μl syringe. IRL-1620 was administered 1 hour after Aβ injection whereas BQ788 was administered 15 minutes prior to IRL-1620 injection. At the end of the experiment, placement of cannula was confirmed by injecting methylene blue dye (5 μl) and observing the site and extent of staining. All experiments were performed on day 15 (Briyal et al., 2011). Water maze testing was performed from day 15 to day 19 after which animals were euthanized. Animals used for oxidative stress measurements were euthanized on day 15 without being subjected to any behavioral testing. Diabetes mellitus type 2 was induced in rats belonging to the diabetic group by administering freshly prepared streptozotocin at the dose of 45 mg/kg, i.p. Streptozotocin was dissolved in 0.01 M sodium citrate buffer of pH 4.3. On day 3, blood glucose was obtained from the rat-tail and tested for hyperglycemia using the SureStep Complete Blood Glucose monitor kit. Rats with blood glucose levels above 11.1 mM were considered diabetic. Diabetic and non-diabetic animals were randomly divided into five groups (6 rats per group) (i) Sham, (ii) Aβ+Vehicle, (iii) Aβ+IRL-1620, (iv) Aβ+BQ788 (v) Aβ+BQ788+IRL-1620. Aβ (1-40) was administered intracerebroventricularly (i.c.v.) (20 μg in 3 equally divided doses i.e. 6.67 μg were injected 3 times for a total of 20 μg dose) on day 1, 7, and 14. Specific ETB receptor agonist, IRL-1620 (3 μg) and specific ETB receptor antagonist, BQ788 (10 μg) were administered i.c.v. daily for 14 days starting from day 1 of Aβ injection. The doses of IRL-1620 and BQ788 were selected on the basis of previous studies conducted in our laboratory (Leonard et al., 2011).
Spatial learning and memory of animals were tested in a MWM (Morris, 1984). […]

`CCCC[C@@H](NC(=O)[C@@H](Cc1cn(C(=O)OC)c2ccccc12)NC(=O)[C@H](CC(C)(C)C)NC(=O)N1[C@H](C)CCC[C@@H]1C)C(=O)O` [BQ788, reference compound]: the “Improvement in escape latency produced by IRL-1620” value (Aβ rats, BQ788 given with IRL-1620) was “blocked”. Further, the “Time spent in the target quadrant, probe trial” value (Aβ treated rats given BQ788) was “did not produce any improvement”.
In the case of “Suc-Asp-Glu-Glu-Ala-Val-Tyr-Phe-Ala-His-Leu-Asp-Ile-Ile-Trp (Suc-DEEAVYFAHLDIIW) [IRL-1620]”, for the setting “Aβ treated rats, day 3 and 4 of training, vs Aβ + vehicle”, the “Escape latency, water maze acquisition” value is reported as “decreased significantly”. The “Path length, water maze acquisition” value (Aβ treated rats, vs vehicle group) is recorded as “shorter path lengths”. In addition, where the note is “Aβ treated rats, vs vehicle treated Aβ rats”, the “Time spent in the target quadrant, probe trial” value is reported as “increased”.
